Consider eleven compounds from ChEMBL document CHEMBL3860050, “Triterpenoids from Momordica balsamina: Reversal of ABCB1-mediated multidrug resistance” (Bioorg Med Chem, 2016).

Series [1] addresses T1, ATP-dependent translocase ABCB1 (Homo sapiens, UniProt P08183). Briefly: Inhibition of MDR1-mediated efflux-pump activity in mouse L5178Y cells expressing human MDR1 assessed as side scattered light at 20 uM preincubated for 10 mins followed by rhodamine-123 addition measured after 20 mins by flow cytometry (reference value: 194.6 to 286.4). The format is cell-based. On the technique in general: In flow cytometry, cells or beads pass a laser one at a time.

Series [2] is described as follows: Antiproliferative activity against mouse L5178Y cells expressing human MDR1 measured after 72 hrs by MTT assay. The format is functional, cell-based.
In series [3] the target is T1, ATP-dependent translocase ABCB1. Briefly: Inhibition of MDR1-mediated efflux-pump activity in mouse L5178Y cells expressing human MDR1 assessed as forward scattered light at 2 uM preincubated for 10 mins followed by rhodamine-123 addition measured after 20 mins by flow cytometry (reference value: 455.7 to 509.9). The format is cell-based.
Series [4] shares this target. The series can be described thus: Inhibition of MDR1-mediated efflux-pump activity in mouse L5178Y cells expressing human MDR1 assessed as fluorescence activity ratio at 2 uM preincubated for 10 mins followed by rhodamine-123 addition measured after 20 mins by flow cytometry. The format is cell-based.
The target is the same in series [5]. The series can be described thus: Inhibition of MDR1-mediated efflux-pump activity in mouse L5178Y cells expressing human MDR1 assessed as mean fluorescence intensity at 2 uM preincubated for 10 mins followed by rhodamine-123 addition measured after 20 mins by flow cytometry (reference value: 7.1 to 18.6). It counts as cell-based.
The target is the same in series [6]. The series can be described thus: Inhibition of MDR1-mediated efflux-pump activity in mouse L5178Y cells expressing human MDR1 assessed as mean fluorescence intensity at 20 uM preincubated for 10 mins followed by rhodamine-123 addition measured after 20 mins by flow cytometry (reference value: 7.1 to 18.6). It counts as cell-based.
The target is the same in series [7]. Briefly: Inhibition of MDR1-mediated efflux-pump activity in mouse L5178Y cells expressing human MDR1 assessed as fluorescence activity ratio at 20 uM preincubated for 10 mins followed by rhodamine-123 addition measured after 20 mins by flow cytometry. The format is cell-based.
Series [8] is described as follows: Antiproliferative activity against mouse L5178Y cells measured after 72 hrs by MTT assay. It counts as functional, cell-based.
Series [9] concerns the target T1, ATP-dependent translocase ABCB1. The series can be described thus: Inhibition of MDR1-mediated efflux-pump activity in mouse L5178Y cells expressing human MDR1 assessed as forward scattered light at 20 uM preincubated for 10 mins followed by rhodamine-123 addition measured after 20 mins by flow cytometry (reference value: 455.7 to 509.9). It counts as cell-based.

Series [10] shares this target. Briefly: Inhibition of MDR1-mediated efflux-pump activity in mouse L5178Y cells expressing human MDR1 assessed as side scattered light at 2 uM preincubated for 10 mins followed by rhodamine-123 addition measured after 20 mins by flow cytometry (reference value: 194.6 to 286.4). It counts as cell-based.

Each structure is given as a SMILES string.

T1 sequence (P08183 whole entry): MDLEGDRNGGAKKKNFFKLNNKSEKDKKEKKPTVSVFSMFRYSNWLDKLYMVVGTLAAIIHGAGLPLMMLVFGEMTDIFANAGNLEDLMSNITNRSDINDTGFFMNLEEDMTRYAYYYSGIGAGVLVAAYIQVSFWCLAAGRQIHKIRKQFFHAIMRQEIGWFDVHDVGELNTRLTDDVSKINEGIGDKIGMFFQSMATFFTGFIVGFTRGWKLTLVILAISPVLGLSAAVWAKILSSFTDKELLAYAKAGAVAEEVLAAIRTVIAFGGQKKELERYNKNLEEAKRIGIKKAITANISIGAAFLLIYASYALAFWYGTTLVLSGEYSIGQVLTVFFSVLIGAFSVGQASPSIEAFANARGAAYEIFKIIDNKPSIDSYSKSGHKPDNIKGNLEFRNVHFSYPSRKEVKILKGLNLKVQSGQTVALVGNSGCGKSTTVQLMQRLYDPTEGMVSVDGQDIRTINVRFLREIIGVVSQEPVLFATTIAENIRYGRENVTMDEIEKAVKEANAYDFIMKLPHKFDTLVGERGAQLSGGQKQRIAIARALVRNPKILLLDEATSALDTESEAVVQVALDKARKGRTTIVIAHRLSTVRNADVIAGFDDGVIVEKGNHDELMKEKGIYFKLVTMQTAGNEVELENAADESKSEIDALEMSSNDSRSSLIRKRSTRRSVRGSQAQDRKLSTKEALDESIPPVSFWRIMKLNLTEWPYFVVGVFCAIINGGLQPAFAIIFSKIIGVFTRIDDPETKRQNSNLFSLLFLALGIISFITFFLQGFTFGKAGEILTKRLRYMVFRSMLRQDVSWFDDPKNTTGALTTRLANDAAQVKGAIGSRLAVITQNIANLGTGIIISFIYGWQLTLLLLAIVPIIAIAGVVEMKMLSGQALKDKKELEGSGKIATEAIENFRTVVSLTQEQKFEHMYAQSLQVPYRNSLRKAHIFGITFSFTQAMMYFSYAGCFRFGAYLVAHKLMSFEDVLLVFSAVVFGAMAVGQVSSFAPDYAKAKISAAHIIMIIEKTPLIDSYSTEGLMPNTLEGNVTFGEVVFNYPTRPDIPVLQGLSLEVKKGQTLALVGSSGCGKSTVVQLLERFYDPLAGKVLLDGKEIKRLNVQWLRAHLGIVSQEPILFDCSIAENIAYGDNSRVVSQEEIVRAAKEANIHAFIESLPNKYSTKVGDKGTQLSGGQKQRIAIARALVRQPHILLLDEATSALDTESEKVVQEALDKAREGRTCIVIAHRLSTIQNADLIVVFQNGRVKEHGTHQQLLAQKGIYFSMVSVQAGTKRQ

In general, IC50 refers to the concentration that inhibits the measured activity by half. `CO[C@H]1C=C2[C@@H](CC[C@H](OC(=O)c3ccc(Cl)cc3)C2(C)C)[C@]2(C)CC[C@]3(C)[C@@H]([C@H](C)C[C@H](C=C(C)C)OC(=O)c4ccc(Cl)cc4)CC[C@@]3(C)[C@H]12` [KARAVOATE L]: the Activity in series [1] came to 202.4; in series [3], 504.6; in series [9], 512.2; in [10], 206.4. In addition, the IC50 in series [2] and in series [8] was over 133 µM in each case. Further, the results for the Ratio in series [4] and in [7] were 1 and 1.2, respectively. The Flu intensity in [5] is 8.1; in series [6] it was 9.

Turning to `CO[C@H]1C=C2[C@@H](CC[C@H](OC(=O)c3ccccc3)C2(C)C)[C@]2(C)CC[C@]3(C)[C@@H]([C@H](C)C[C@H](C=C(C)C)OC(=O)c4ccccc4)CC[C@@]3(C)[C@H]12` [KARAVOATE H], the Activity came to 215.4 in series [1], 504.9 in [3], 519.8 in series [9] and 200.4 in series [10]. For the same compound, the half-inhibitory concentration (IC50) in [2] is 96.4 µM; in [8], over 133 µM. Besides, the Ratio is given as 1.2 in series [4] and 1.3 in series [7]. The results for the Flu intensity in series [5] and in [6] were 9 and 10.4, respectively.

For `CO[C@H]1C=C2[C@@H](CC[C@H](O)C2(C)C)[C@]2(C)CC[C@]3(C)[C@@H]([C@H](C)C[C@H](C=C(C)C)OC(=O)/C=C/c4ccccc4)CC[C@@]3(C)[C@H]12` [KARAVOATE O], the Activity is listed as 206.9 in series [1], 496.9 in series [3], 505.9 in [9] and 197.9 in [10]. In addition, the IC50 was 90 µM in [2] and over 133 µM in series [8]. Also, the results for the Ratio in series [4] and in series [7] were 1.3 and 1.4, respectively. The Flu intensity in series [5] was 10; in series [6], 11.

With `CO[C@H]1C=C2[C@@H](CC[C@H](O)C2(C)C)[C@]2(C)CC[C@]3(C)[C@@H]([C@H](C)C[C@H](C=C(C)C)OC(=O)CCC(=O)O)CC[C@@]3(C)[C@H]12`, the Activity amounted to 185.6 in [1], 545.2 in series [3], 540.1 in series [9] and 184.1 in series [10]. Besides, the IC50 was found to be 40.6 µM in series [2] and 20.8 µM in series [8]. Also, the Ratio in series [4] was 1.1; in series [7], 4.2. Also, the values for the Flu intensity in series [5] and in [6] were 7.5 and 28, respectively.

For `CCCC(=O)O[C@H]1CC[C@@H]2C(=C[C@H](OC)[C@@H]3[C@@]2(C)CC[C@]2(C)[C@@H]([C@H](C)C[C@H](C=C(C)C)OC(=O)CCC)CC[C@@]32C)C1(C)C` [KARAVOATE F], the Activity was determined as 218.7 in series [1], 542.6 in series [3], 541 in series [9] and 218.3 in series [10]. For the same compound, the IC50 in series [2] is over 133 µM; in [8] it was 93.2 µM. Moreover, the results for the Ratio in series [4] and in series [7] were 1.4 and 1.6, respectively. Also, the Flu intensity in series [5] is given as 10.8; in [6], 12.3.

Regarding `CC(C)=C[C@H](O)C[C@@H](C)[C@H]1CC[C@@]2(C)[C@@H]3[C@@H](O)C=C4[C@@H](CC[C@H](O)C4(C)C)[C@]3(C)CC[C@]12C` [BALSAMINOL F], the half-maximal inhibitory concentration (IC50) in series [2] was determined as 20.8 µM; in series [8], 8.3 µM. Moreover, the Activity is reported as 490.7 in series [3] and 202.1 in [10]. The Ratio in [4] is recorded as 2.6. Moreover, the Flu intensity in series [5] came out at 20.1.

Turning to `CO[C@H]1C=C2[C@@H](CC[C@H](OC(=O)/C=C/c3ccccc3)C2(C)C)[C@]2(C)CC[C@]3(C)[C@@H]([C@H](C)C[C@H](C=C(C)C)OC(=O)/C=C/c4ccccc4)CC[C@@]3(C)[C@H]12` [KARAVOATE P], the Activity in series [1] is reported as 177; in [3] it was 528; in series [9], 503; in series [10], 191.2. Further, the IC50 in [2] and in [8] was over 133 µM in each case. The Ratio was determined as 1 in series [4] and 2.7 in [7]. Moreover, the Flu intensity in [5] was found to be 6.9; in series [6], 18.1.

For `CC(=O)O[C@H]1C=C2[C@@H](CC[C@H](OC(C)=O)C2(C)C)[C@]2(C)CC[C@]3(C)[C@@H]([C@H](C)C[C@H](C=C(C)C)OC(C)=O)CC[C@@]3(C)[C@H]12` [TRIACETYLBALSAMINOL F], the Activity is 179.9 in series [1], 541.9 in series [3], 533.5 in [9] and 182.1 in series [10]. Moreover, the IC50 in [2] and in [8] was over 133 µM in each case. For the same compound, the Ratio in series [4] came to 3; in series [7], 15. In addition, the Flu intensity is 20 in series [5] and 100.6 in series [6].

In the case of `CO[C@H]1C=C2[C@@H](CC[C@H](O)C2(C)C)[C@]2(C)CC[C@]3(C)[C@@H]([C@H](C)C[C@H](C=C(C)C)OC(=O)c4ccc(Cl)cc4)CC[C@@]3(C)[C@H]12` [KARAVOATE K], the Activity turned out to be 210.8 in series [1], 517.9 in [3], 511.1 in series [9] and 207 in series [10]. The half-inhibitory concentration (IC50) in [2] was 93.2 µM; in [8] it was 63.4 µM. Moreover, the Ratio turned out to be 1.4 in series [4] and 1.6 in series [7]. Moreover, the Flu intensity in series [5] turned out to be 10.7; in [6], 12.2.

With `C=C(C)[C@@H](O)[C@H](O)C[C@@H](C)[C@H]1CC[C@@]2(C)[C@@H]3[C@@H](O)C=C4[C@@H](CC[C@H](O)[C@]4(C)CO)[C@]3(C)CC[C@]12C` [BALSAMINAPENTAOL A], the Activity is given as 252 in series [1], 427.2 in [3], 429 in series [9] and 254.7 in series [10]. Also, the IC50 in series [2] is 29.3 µM; in [8] it was 13.7 µM. In addition, the Ratio was 0.7 in series [4] and 2.9 in series [7]. In addition, the Flu intensity in [5] was determined as 8.8; in series [6], 38.2.

Consider `CC(C)=C[C@H](O)C[C@@H](C)[C@H]1CC[C@@]2(C)[C@@H]3[C@@H](O[C@H]4O[C@@H](CO)[C@H](O)[C@H](O)[C@@H]4O)C=C4[C@@H](CC[C@H](O)C4(C)C)[C@]3(C)CC[C@]12C`, for which the Activity was determined as 277.2 in [1], 443.8 in [3], 457.9 in series [9] and 267.4 in [10]. In addition, the half-maximal inhibitory concentration (IC50) in series [2] came to 42.6 µM; in [8], 18.7 µM. In addition, the figures for the Ratio in series [4] and in [7] were 0.9 and 37.2, respectively. The Flu intensity turned out to be 11.5 in series [5] and 487.1 in [6].
